The target of data set [1] is T1, NR2B-subtype NMDA receptors (Rattus norvegicus, UniProt P35439+Q00960).
T1 construct: from tissue; host or cells: rat forebrain membrane homogenate (Sprague Dawley, Harlan)
The data set can be described thus: Radioligand binding assay (3H Ro 25-6981 competition). The note with it: rat forebrain membranes, 3H Ro 25-6981 (4 nM). As for the experimental part: Radioligand binding assay. Binding experiments to determine binding to NR2B-subtype NMDA receptors were performed on forebrains of 8-10 weeks old male Sprague Dawley rats (Harlan, Netherlands) using ^3H Ro 25-6981 (Mutel V; Buchy D; Klingelschmidt A; Messer J; Bleuel Z; Kemp J A; Richards J G. Journal of Neurochemistry, 1998, 70(5):2147-2155. Rats were decapitated without anesthesia using a Guillotine (approved by animal ethics committee) and the harvested brains were snap-frozen and stored at −80° C. for 3-6 months for membrane preparation.
For membrane preparation, rat forebrains were thawed on ice for 20 minutes in homogenization buffer composed of 50 mM KH2PO4 (pH adjusted to 7.4 with KOH), 1 mM EDTA, 0.005% Triton X 100 and protease inhibitor cocktail (Sigma Aldrich). Thawed brains were homogenized using a Dounce homogenizer and centrifuged at 48000×g for 20 min. The pellet was resuspended in cold buffer and homogenized again using a Dounce homogenizer. Subsequently, the homogenate was aliquoted, snap-frozen and stored at −80° C. for not more than 3-4 months.
To perform the competition binding assay, thawed membrane homogenate was added to each well of a 96-well plate (20 μg/well). […] The filter plates were dried at 50° C. for 20 mins, incubated with microscint 20 for 10 minutes and finally, the counts were read on TopCount (Perkin Elmer).

Another data set addresses T2, NR2B-subtype receptors (Mus musculus, UniProt P35438+Q01097).
T2 construct: brain-resident NR2B-subtype receptors; from tissue; host or cells: forebrain membrane homogenates of dosed CD-1 mice
The experiment in a line: Ex vivo occupancy assay. It counts as in vivo. The conditions noted are these: for receptor occupancy at 3 mg/kg: mouse, iv. As for the experimental part:
Ex vivo occupancy assay. […] 7-9 weeks old male CD-1 mice were dosed intravenously in a vehicle consisting of 10% dimethylacetamide, 40% PEG-400, 30% hydroxypropyl betacyclodextrin, and 30% water with experimental compounds and the forebrains were harvested 15 minutes post-dosing by decapitation. The brain samples were immediately snap-frozen and stored at −80° C. On the following day, the dosed brain samples were thawed on ice for 15-20 minutes followed by homogenization using Polytron for 10 seconds in cold homogenization buffer composed of 50 mM KH2PO4 (pH adjusted to 7.4 with KOH), 1 mM EDTA, 0.005% Triton X 100 and protease inhibitor cocktail (Sigma Aldrich). The crude homogenates were further homogenized using a Dounce homogenizer and the homogenized membrane aliquots from all animals were flash-frozen and stored at −80° C. until further use. The whole homogenization process was performed on ice.
For determining occupancy, the membrane homogenates were first thawed on ice and then needle-homogenized using a 25 gauge needle. The homogenized membrane (6.4 mg/ml) was added to a 96-well plate followed by addition of ^3H Ro 25-6981 (6 nM). The reaction mixture was incubated for 5 minutes on a shaker at 4° C. and then harvested onto GF/B filter plates (treated with 0.5% PEI for 1 hr at room temperature). The filter plates were dried at 50° C. for 20 mins, incubated with microscint 20 for 10 minutes and read on TopCount (Perkin Elmer). Each dose or compound group consisted of 4-5 animals. The control group of animals was dosed with vehicle alone. Membrane from each animal was added in triplicates to the assay plate. Non-specific binding was determined using 10 μM Ro 25-6981 added to the wells containing membrane homogenates from vehicle-dosed animals. Specific counts/minute was converted to % occupancy at each dose of a compound for each animal using the following equation:
(§1) [formula] […] Drug levels were determined by mass spectroscopy in the usual manner. Drug levels in the blood plasma were 1018 nM in at this dose, and drug levels in the homogonized brain tissue were 1342 nM.

Data set [2] can be described thus: Drug levels in blood plasma and homogenized brain tissue by mass spectroscopy. It counts as in vivo, mouse. The note with it: intravenous; for concentration at 15 min: CD-1, mouse, 3 mg/Kg i.v. dose, ex vivo occupancy study, mice; for concentration at 21 min: 3 mg/Kg i.v., end of mouse forced swim test. As to the method:
as §1
Mouse Forced swim test (mFST). Forced Swim Test (FST) is an animal model used to assess antidepressant compounds in preclinical studies. The FST was performed similar to the method of Porsolt et al. with modifications (Porsolt R D, Bertin A, Jalfre M. Behavioral despair in mice: a primary screening test for antidepressants. Arch Int Pharmacodyn Thér 1977; 229:327-36). In this paradigm, mice are forced to swim in an inescapable cylinder filled with water. Under these conditions, mice will initially try to escape and eventually develop immobility behavior; this behavior is interpreted as a passive stress-coping strategy or depression-like behavior. Swim tanks were positioned inside a box made of plastic. Each tank was separated from each other by opaque plastic sheets to the height of cylinders. Three mice were subjected to test at a time. Swim sessions were conducted for 6 min by placing mice in individual glass cylinders (46 cm height×20 cm diameter) containing water (20-cm deep, maintained at 24-25° C.). […] The mouse was judged to be immobile whenever it remained floating passively without struggling in the water and only making those movements necessary to keep its nose/head above the water and to keep it afloat. The duration of immobility was evaluated during the total 6 min of the test and expressed as duration (sec) of immobility. Each mouse was tested only once. At the end of each session, mice were dried with a dry cloth and returned to their home cage placed on a thermal blanket to prevent hypothermia. Water was replaced after each trial. All testing sessions were recorded with a video camera (Sony Handicam, Model: DCR-HC38E; PAL) and scoring was done using the Forced Swim Scan, Version 2.0 software (Clever Systems Inc., Reston, Va., USA; see Hayashi E, Shimamura M, Kuratani K, Kinoshita M, Hara H. Automated experimental system capturing three behavioral components during murine forced swim test. Life Sci. 2011 February 28; 88 (9-10): 411-7 and Yuan P, Tragon T, Xia M, Leclair C A, Skoumbourdis A P, Zheng W, Thomas C J, Huang R, Austin C P, Chen G, Guitart X. Phosphodiesterase 4 inhibitors enhance sexual pleasure-seeking activity in rodents. Pharmacol Biochem Behav. 2011; 98(3):349-55). For NCE testing: Test compound was administered in mice 15 min before swim session by i.v. route and immobility time was recorded for next 6 min. […] The NR2B receptor occupancy was determined as reported above and was determined to be 67%.

For the next data set, the target named is T3, hERG channels (Homo sapiens, UniProt Q12809).
T3 construct: expressed in transfected cells
The data set can be described thus: hERG electrophysiology assay (patch clamp). It is filed as cell-based. The note with it: HEK 293 cells stably expressing hERG channels, tail current. As to the method:
hERG electrophysiology assay. The experimental compounds were assessed for hERG activity on HEK 293 cells stably expressing hERG channels using patch clamp technique. Coverslips plated with hERG expressing cells were placed in the experimental chamber and were perfused with a solution composed of (in mM): 140 NaCl, 4 KCl, 1.8 CaCl2, 1 MgCl2, 10 Glucose, 10 HEPES (pH 7.4, NaOH) at room temperature. Borosilicate patch pipettes had tip resistances of 2-4 Mohms when filled with an internal solution containing: 130 KCl, 1 MgCl2, 1 CaCl2, 10 EGTA, 10 HEPES, 5 ATP-K2 (pH 7.2, KOH). The cells were clamped at −80 mV in whole cell configuration using an Axopatch 200B (Axon instruments, Union City, Calif.) patch clamp amplifier controlled by pClamp (Axon instruments) software. […] First, tail currents were recorded in presence of extracellular solution alone (control) and subsequently, in extracellular solution containing increasing compound concentrations. […] The percentage inhibition at each concentration was calculated as reduction in peak tail current with respect to the peak tail current recorded in the presence of control solution. […]

A further data set relates to mice. The data set can be described thus: Mouse Forced swim test (mFST). The note with it: 3 mg/Kg i.v., 15 min before swim session, 6 min test. It counts as in vivo. As for the experimental part: Mouse Forced swim test (mFST). Forced Swim Test (FST) is an animal model used to assess antidepressant compounds in preclinical studies. The FST was performed similar to the method of Porsolt et al. with modifications (Porsolt R D, Bertin A, Jalfre M. Behavioral despair in mice: a primary screening test for antidepressants. Arch Int Pharmacodyn Thér 1977; 229:327-36). In this paradigm, mice are forced to swim in an inescapable cylinder filled with water. Under these conditions, mice will initially try to escape and eventually develop immobility behavior; this behavior is interpreted as a passive stress-coping strategy or depression-like behavior. […] The duration of immobility was evaluated during the total 6 min of the test and expressed as duration (sec) of immobility. […] All testing sessions were recorded with a video camera (Sony Handicam, Model: DCR-HC38E; PAL) and scoring was done using the Forced Swim Scan, Version 2.0 software (Clever Systems Inc., Reston, Va., USA; see Hayashi E, Shimamura M, Kuratani K, Kinoshita M, Hara H. Automated experimental system capturing three behavioral components during murine forced swim test. Life Sci. 2011 February 28; 88 (9-10): 411-7 and Yuan P, Tragon T, Xia M, Leclair C A, Skoumbourdis A P, Zheng W, Thomas C J, Huang R, Austin C P, Chen G, Guitart X. Phosphodiesterase 4 inhibitors enhance sexual pleasure-seeking activity in rodents. […]

The structures appear in SMILES notation. Read-outs that look alike come from different tables or passages of the source.

T2 sequence (Q01097 27-1482, other chains not shown): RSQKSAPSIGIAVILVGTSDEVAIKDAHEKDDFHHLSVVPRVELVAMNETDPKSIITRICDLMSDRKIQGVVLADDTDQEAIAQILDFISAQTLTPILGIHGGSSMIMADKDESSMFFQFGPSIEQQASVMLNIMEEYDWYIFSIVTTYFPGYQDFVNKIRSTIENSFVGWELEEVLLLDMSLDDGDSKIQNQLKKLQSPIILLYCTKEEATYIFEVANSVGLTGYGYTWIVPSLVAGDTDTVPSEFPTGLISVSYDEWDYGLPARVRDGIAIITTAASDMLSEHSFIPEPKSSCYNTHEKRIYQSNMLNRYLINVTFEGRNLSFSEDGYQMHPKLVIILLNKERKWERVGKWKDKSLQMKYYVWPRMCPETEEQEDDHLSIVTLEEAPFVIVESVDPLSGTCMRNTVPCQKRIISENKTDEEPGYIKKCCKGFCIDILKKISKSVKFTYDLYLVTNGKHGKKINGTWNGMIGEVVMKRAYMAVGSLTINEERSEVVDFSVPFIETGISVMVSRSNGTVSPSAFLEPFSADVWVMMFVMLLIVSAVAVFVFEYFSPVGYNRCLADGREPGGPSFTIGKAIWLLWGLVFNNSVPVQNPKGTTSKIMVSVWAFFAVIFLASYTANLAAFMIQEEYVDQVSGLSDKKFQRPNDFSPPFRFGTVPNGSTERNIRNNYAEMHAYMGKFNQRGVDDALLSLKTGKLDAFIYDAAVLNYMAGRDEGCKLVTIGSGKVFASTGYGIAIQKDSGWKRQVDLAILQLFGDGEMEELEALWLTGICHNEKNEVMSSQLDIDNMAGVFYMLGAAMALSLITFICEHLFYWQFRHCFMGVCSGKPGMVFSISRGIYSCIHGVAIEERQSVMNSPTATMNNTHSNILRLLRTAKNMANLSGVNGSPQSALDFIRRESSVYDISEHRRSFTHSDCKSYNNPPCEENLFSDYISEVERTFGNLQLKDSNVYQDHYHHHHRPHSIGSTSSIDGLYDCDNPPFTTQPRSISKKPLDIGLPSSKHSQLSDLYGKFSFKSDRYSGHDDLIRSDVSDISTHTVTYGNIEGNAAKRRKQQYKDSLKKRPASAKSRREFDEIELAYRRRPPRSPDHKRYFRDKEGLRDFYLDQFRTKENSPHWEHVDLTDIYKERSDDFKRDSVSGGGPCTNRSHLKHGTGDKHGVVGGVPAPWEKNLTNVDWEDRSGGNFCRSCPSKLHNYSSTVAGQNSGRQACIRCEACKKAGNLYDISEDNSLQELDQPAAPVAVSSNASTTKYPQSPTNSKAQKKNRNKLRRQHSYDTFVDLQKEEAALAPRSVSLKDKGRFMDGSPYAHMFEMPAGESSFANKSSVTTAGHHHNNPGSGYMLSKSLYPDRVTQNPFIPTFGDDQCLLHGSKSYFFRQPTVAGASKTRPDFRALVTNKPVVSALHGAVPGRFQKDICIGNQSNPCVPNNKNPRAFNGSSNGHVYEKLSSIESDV
T3 sequence (Q12809 whole entry): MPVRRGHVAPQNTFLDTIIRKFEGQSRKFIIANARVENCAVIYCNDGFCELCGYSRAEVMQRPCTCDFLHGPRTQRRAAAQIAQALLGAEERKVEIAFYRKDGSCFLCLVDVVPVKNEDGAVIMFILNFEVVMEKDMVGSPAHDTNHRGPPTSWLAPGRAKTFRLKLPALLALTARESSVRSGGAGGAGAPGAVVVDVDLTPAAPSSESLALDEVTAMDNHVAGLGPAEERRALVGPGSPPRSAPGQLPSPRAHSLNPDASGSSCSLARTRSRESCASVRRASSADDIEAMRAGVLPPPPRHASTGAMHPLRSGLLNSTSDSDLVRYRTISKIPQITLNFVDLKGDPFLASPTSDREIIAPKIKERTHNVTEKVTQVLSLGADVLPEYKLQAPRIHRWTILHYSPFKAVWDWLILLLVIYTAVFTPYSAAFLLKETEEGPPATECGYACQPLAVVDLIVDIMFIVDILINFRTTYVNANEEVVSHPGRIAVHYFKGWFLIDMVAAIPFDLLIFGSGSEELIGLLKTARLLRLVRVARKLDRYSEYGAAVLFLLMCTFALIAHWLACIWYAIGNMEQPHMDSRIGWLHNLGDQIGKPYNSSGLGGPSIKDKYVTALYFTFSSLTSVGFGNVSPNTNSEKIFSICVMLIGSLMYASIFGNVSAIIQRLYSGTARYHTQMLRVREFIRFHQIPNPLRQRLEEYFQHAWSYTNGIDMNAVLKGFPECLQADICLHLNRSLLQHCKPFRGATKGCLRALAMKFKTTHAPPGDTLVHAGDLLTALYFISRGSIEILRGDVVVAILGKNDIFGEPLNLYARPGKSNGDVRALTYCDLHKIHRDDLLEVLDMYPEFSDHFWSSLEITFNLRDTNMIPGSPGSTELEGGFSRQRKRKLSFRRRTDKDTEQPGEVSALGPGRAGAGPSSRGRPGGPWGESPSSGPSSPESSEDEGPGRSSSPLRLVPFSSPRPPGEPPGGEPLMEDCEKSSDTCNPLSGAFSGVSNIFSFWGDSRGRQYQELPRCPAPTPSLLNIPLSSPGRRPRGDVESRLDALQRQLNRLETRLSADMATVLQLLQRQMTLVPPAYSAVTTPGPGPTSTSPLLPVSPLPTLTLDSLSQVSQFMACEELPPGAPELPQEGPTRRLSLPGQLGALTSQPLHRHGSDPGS
T1 sequence (Q00960 27-1482, other chains not shown): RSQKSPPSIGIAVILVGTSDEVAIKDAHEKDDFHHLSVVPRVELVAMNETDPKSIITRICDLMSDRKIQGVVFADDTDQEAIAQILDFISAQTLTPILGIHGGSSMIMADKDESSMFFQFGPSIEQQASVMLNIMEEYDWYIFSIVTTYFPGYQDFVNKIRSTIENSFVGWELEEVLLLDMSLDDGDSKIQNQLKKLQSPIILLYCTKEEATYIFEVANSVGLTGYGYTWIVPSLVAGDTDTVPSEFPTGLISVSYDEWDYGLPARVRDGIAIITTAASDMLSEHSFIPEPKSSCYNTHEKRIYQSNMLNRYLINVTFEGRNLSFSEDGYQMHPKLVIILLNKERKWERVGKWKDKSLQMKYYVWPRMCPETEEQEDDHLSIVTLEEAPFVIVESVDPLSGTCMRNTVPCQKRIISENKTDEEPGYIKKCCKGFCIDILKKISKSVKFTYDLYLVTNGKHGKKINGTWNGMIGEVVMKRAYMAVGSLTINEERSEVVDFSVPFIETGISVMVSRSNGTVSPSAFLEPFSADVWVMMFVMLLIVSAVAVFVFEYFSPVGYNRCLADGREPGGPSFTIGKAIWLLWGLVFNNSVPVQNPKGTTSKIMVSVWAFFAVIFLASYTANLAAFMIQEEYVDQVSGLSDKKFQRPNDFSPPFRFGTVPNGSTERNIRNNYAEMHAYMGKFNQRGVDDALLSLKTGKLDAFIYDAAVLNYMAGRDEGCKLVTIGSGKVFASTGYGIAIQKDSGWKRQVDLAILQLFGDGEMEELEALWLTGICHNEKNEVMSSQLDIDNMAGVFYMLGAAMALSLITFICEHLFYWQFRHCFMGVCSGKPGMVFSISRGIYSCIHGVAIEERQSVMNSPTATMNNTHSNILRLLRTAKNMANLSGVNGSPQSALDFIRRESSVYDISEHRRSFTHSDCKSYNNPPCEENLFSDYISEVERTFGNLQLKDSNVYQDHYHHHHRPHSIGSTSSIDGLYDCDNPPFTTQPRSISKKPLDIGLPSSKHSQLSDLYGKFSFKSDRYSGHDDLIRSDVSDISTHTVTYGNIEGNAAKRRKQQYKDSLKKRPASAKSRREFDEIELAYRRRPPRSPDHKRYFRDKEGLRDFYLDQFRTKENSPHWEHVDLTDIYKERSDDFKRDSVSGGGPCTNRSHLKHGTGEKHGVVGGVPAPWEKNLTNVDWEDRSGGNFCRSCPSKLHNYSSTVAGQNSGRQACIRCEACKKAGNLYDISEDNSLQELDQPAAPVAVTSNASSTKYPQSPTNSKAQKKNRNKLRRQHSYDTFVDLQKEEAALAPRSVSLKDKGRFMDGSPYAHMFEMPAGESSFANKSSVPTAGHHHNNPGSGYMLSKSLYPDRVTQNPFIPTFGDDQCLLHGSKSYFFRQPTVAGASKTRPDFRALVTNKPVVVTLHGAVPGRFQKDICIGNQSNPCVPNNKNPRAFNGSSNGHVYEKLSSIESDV

For the molecule `Cc1ccc(N2CCC(N3CCN(c4ccc(O)cn4)CC3)C2=O)cc1F` (single isomer, unassigned) [Example 14 P1, 1-(3-fluoro-4-methylphenyl)-3-(4-(5-hydroxypyridin-2-yl)piperazin-1-yl)pyrrolidin-2-one], affinity in data set [1] was put at a Ki of 0.004 µM. For the same molecule, the receptor occupancy at 3 mg/kg came to 86% at NR2B-subtype receptors (3 mg/Kg i.v. dose, CD-1 mice, forebrains harvested 15 minutes post-dosing) and 67% on NR2B-subtype receptors (3 mg/Kg i.v., mice of the forced swim test). In addition, the concentration at 15 min was determined as 1340 nM in data set [2] (brain homogenate, read-out: drug levels in the homogonized brain tissue) and 1020 nM in data set [2] (plasma, read-out: Drug levels in the blood plasma). Also, the concentration at 21 min in data set [2] (brain, read-out: Drug levels in the brain) amounted to 410 nM; in data set [2] (plasma, read-out: Drug levels in the plasma), 314 nM. At hERG channels, the half-maximal inhibitory concentration (IC50) (in general, the concentration needed to halve the response being measured) came out at 8.9 µM. Besides, the immobility time result in the data set on mice is given as “statistically significant decrease”.

Turning to `O=C1C(N2CCN(c3ncc(O)cn3)CC2)CCN1c1ccc(Cl)c(F)c1` (racemic) [Example 1, 1-(4-chloro-3-fluorophenyl)-3-(4-(5-hydroxypyrimidin-2-yl)piperazin-1-yl)pyrrolidin-2-one], on NR2B-subtype receptors (animals after dosing), the “occupancy of brain-resident NR2B-subtype receptors (in words)” value was “occupies brain-resident NR2B-subtype receptors”.

(Values after US10961229B2, “Selective NR2B antagonists” (Bristol-Myers Squibb Company, priority 2015, dated 2021).)
